Measured values as given in the NIST ThermoML archive (doi:10.1016/j.jct.2018.01.015).

Settings: Gas, rotating-body viscometer for gases

N#N [nitrogen]
Settings | viscosity [mPa·s]
253.21 K, 100.8 kPa | 0.01561
253.21 K, 200.9 kPa | 0.01564
253.21 K, 400.7 kPa | 0.01566
253.21 K, 600.8 kPa | 0.01571
253.21 K, 800.8 kPa | 0.01574
253.21 K, 1000.9 kPa | 0.01579
253.21 K, 1200.9 kPa | 0.01584
273.24 K, 100.7 kPa | 0.01659
273.24 K, 200.8 kPa | 0.01661
273.24 K, 400.5 kPa | 0.01664
273.24 K, 600.4 kPa | 0.01667
273.24 K, 800.6 kPa | 0.01671
273.24 K, 1000.6 kPa | 0.01674
273.24 K, 1499.8 kPa | 0.01685
298.24 K, 800.5 kPa | 0.01785
298.25 K, 99.6 kPa | 0.01776
298.25 K, 100.7 kPa | 0.01777
298.25 K, 200.5 kPa | 0.01778
298.25 K, 400.7 kPa | 0.0178
298.25 K, 400.8 kPa | 0.0178
298.25 K, 600.2 kPa | 0.01783
298.25 K, 1000.1 kPa | 0.01789
298.25 K, 1500.2 kPa | 0.01799
323.26 K, 100.6 kPa | 0.0189
323.26 K, 101.5 kPa | 0.0189
323.26 K, 200.7 kPa | 0.0189
323.26 K, 400.4 kPa | 0.01893
323.26 K, 600.8 kPa | 0.01896
323.26 K, 800.2 kPa | 0.01896
323.26 K, 1000.6 kPa | 0.01901
323.26 K, 1000.9 kPa | 0.01901
323.27 K, 398.8 kPa | 0.01893
323.27 K, 1501.9 kPa | 0.01907
323.27 K, 1802.1 kPa | 0.01913
373.29 K, 100.8 kPa | 0.02102
373.29 K, 201.1 kPa | 0.02104
373.29 K, 401 kPa | 0.02106
373.29 K, 601 kPa | 0.02107
373.29 K, 1000.3 kPa | 0.02111
373.29 K, 1500.6 kPa | 0.02118
373.29 K, 1807.2 kPa | 0.02122
423.33 K, 100.9 kPa | 0.02302
423.33 K, 200.9 kPa | 0.02303
423.33 K, 400.7 kPa | 0.02306
423.33 K, 600.6 kPa | 0.02308
423.33 K, 1000.5 kPa | 0.02311
423.33 K, 1500.2 kPa | 0.02316
423.33 K, 1799.4 kPa | 0.02319
473.38 K, 100.7 kPa | 0.02494
473.38 K, 200.8 kPa | 0.02495
473.38 K, 398.5 kPa | 0.02496
473.38 K, 600.9 kPa | 0.02497
473.38 K, 1000.7 kPa | 0.02499
473.38 K, 1500.6 kPa | 0.02503
473.38 K, 1799.3 kPa | 0.02505
